Results reported in patent publication US5916869A, “Method of treating birds in ovo” (North Carolina State University, priority 1997, dated 1999).

Experiments:
[1] = Broiler chick body weight after in ovo administration; type: in vivo, broiler chicks
Experimental: (§1) To test this hypothesis, the following study was carried out: Four hundred and sixty eggs were randomly divided into two groups and administered either saline (control) or PYY (600 μg/kg egg weight) into the air cell on day 18 of incubation. At hatching 420 chicks were vent sexed, wing-banded, weighed and randomly placed by treatment and sex into 60 pens of 7 chicks each. Pens were equipped with chick founts, nipple drinkers, and feeders. […] The light cycle was 23 light and 1 dark for the entire experiment.
(§2) Chicks were fed a starter diet (22% CP) for the first 3 weeks and a grower diet (20% CP) for the remaining 3 weeks. Individual chicks were weighed weekly and pen feed consumption recorded as feeders were refilled. At week six, all birds were weighed and euthanized with CO2. Data were statistically analyzed using the General Linear Models Procedure of SAS (1988) with treatment, sex, room and pen as the main effects. Differences were considered significant at P<0.05.
(§3) Weight gain and Feed Conversion Ratio (FCR) were evaluated in broiler chicks treated in ovo with PYY as described in Example 1. Although there were sex differences (P<0.05) for many of the growth and performance parameters, there were no sex x treatment interactions (P<0.05). Therefore, data from both sexes was combined.

[2] = Broiler chick Feed Conversion Ratio (FCR) after in ovo administration; type: in vivo, broiler chicks
Experimental: as §1, §2, §3

[3] = in vivo
Experimental: as §1, §2, §3

[4] = test system: jejunal glucose transport; conditions: cited from earlier work; for glucose absorption: young growing mice, exogenous administration

Substance | body weights vs saline control (FIG. 1) ([1]; hatch and week 1 of age, in ovo injection) | body weight, heavier than chicks from control eggs ([1]; week 1, 600 μg/kg egg weight into air cell on day 18 of incubation, vs saline) | broiler weights vs control ([1]; weeks 3 and 6, data not shown) | FCR, less than chicks from saline treated eggs ([2]; one week of age, 600 μg/kg egg weight in ovo) | FCR vs saline control (FIG. 2) ([2]; week 1, in ovo injection) | FCR vs control ([2]; weeks 3 and 6, data not shown) | Mortality [3] | Mortality, difference between treatments [3] | active jejunal glucose transport ([4]; mice treated with PYY) | intestinal energy expenditure ([4]; mice treated with PYY) | passive transport rates ([4]; mice treated with PYY) | glucose absorption [4]
PYY: 36 amino acid peptide hormone produced by L type endocrine cells, member of the pancreatic polypeptide family; term covers PYY-I and PYY-II [Peptide YY] | significantly (P<0.05) greater | 2.7% | No statistical differences | 3.99% | significantly lower (P<0.05) | No differences | less than 1% | did not differ significantly between treatments | increase in active jejunal glucose transport | without any increase in intestinal energy expenditure | without a corresponding increase in passive transport rates | increases glucose absorption
epidermal growth factor (NSDSECPLSHDGYCLHDGVCMYIEALDKYACNCVVGYIGERCQYRDLKWWELR; Epidermal growth factor; UniProt P01133 971-1023, looked up) [EGF, epidermal growth factor, peptide administered in ovo as comparison treatment] |  |  |  |  |  |  |  |  |  |  |  | increases glucose absorption
